What was measured:
Assay type in all cases: functional
Phytophthora infestans = test: Fungicidal activity against Phytophthora infestans at 50 ug/ml by growth inhibition method; design: scale not given: the % may be the effect or the level left
Mycosphaerella arachidis = test: Fungicidal activity against Mycosphaerella arachidis at 50 ug/ml by growth inhibition method; design: scale not given: the % may be the effect or the level left
[1] = system: Botryosphaeria berengeriana; test: Fungicidal activity against Botryosphaeria berengeriana at 50 ug/ml by growth inhibition method; design: scale not given: the % may be the effect or the level left
Alternaria solani = test: Fungicidal activity against Alternaria solani at 50 ug/ml by growth inhibition method; design: scale not given: the % may be the effect or the level left
Tobacco mosaic virus [2] = test: In vitro antiviral activity against Tobacco mosaic virus (TMV) infected tobacco leaves at 500 ug/ml
Fusarium oxysporum = test: Fungicidal activity against Fusarium oxysporum at 50 ug/ml by growth inhibition method; design: scale not given: the % may be the effect or the level left
Thanatephorus cucumeris = test: Fungicidal activity against Thanatephorus cucumeris at 50 ug/ml by growth inhibition method; design: scale not given: the % may be the effect or the level left
Rhizoctonia solani = test: Fungicidal activity against Rhizoctonia solani at 50 ug/ml by growth inhibition method; design: scale not given: the % may be the effect or the level left
Cercospora beticola = test: Fungicidal activity against Cercospora beticola at 50 ug/ml by growth inhibition method; design: scale not given: the % may be the effect or the level left
Colletotrichum lagenaria = test: Fungicidal activity against Colletotrichum lagenaria at 50 ug/ml by growth inhibition method; design: scale not given: the % may be the effect or the level left
Pyricularia grisea = test: Fungicidal activity against Magnaporthe grisea at 50 ug/ml by growth inhibition method; design: scale not given: the % may be the effect or the level left
Tobacco mosaic virus [3] = test: In vitro antiviral activity against Tobacco mosaic virus (TMV) infected tobacco leaves at 100 ug/ml

| SMILES | Activity (Phytophthora infestans) [%] | Activity (Mycosphaerella arachidis) [%] | Activity [1] [%] | Activity (Alternaria solani) [%] | inhibition at 500 µg/mL (Tobacco mosaic virus [2]) [%] | Activity (Fusarium oxysporum) [%] | Activity (Thanatephorus cucumeris) [%] | Activity (Rhizoctonia solani) [%] | Activity (Cercospora beticola) [%] | Activity (Colletotrichum lagenaria) [%] | Activity (Pyricularia grisea) [%] | inhibition at 100 µg/mL (Tobacco mosaic virus [3]) [%] |
| --- | --- | --- | --- | --- | --- | --- | --- | --- | --- | --- | --- | --- |
| Cc1ccc(N(C(=O)c2snnc2C)C(C(=O)NC2CCCCC2)c2ccccc2[N+](=O)[O-])cc1Cl (stereo not drawn) | 0 | 16 | 41 | 35 | 47 | 22 | 22 | 29 | 11 | 32 | 24 | 15 |
| Cc1ccc(N(C(=O)c2snnc2C)C(C(=O)NC2CCCCC2)c2cccc(F)c2)cc1Cl (stereo not drawn) | 21 | 39 | 22 | 21 | 18 | 21 | 17 | 69 | 27 | 9 | 15 | 9 |
| Cc1ccc(N(C(=O)c2snnc2C)C(C(=O)NC2CCCCC2)c2ccc(F)cc2)cc1Cl (stereo not drawn) | 35 | 26 | 26 | 37 | 16 | 0 | 12 | 67 | 27 | 5 | 25 | 15 |
| Cc1ccc(N(C(=O)c2snnc2C)C(C(=O)NC2CCCCC2)c2cccc(C(F)(F)F)c2)cc1Cl (stereo not drawn) | 20 | 21 | 31 | 32 | 19 | 31 | 30 | 20 | 22 | 20 | 24 | 22 |
| Cc1ccc(N(C(=O)c2snnc2C)C(C(=O)NC2CCCCC2)c2ccc([N+](=O)[O-])cc2)cc1Cl (stereo not drawn) | 12 | 16 | 38 | 35 | 32 | 22 | 25 | 29 | 11 | 24 | 18 | 26 |
| Cc1cccc(C(C(=O)NC2CCCCC2)N(C(=O)c2snnc2C)c2ccc(C)c(Cl)c2)c1 (stereo not drawn) | 35 | 17 | 35 | 37 | 19 | 18 | 24 | 63 | 27 | 14 | 10 | 11 |
| Cc1ccc(C(C(=O)NC2CCCCC2)N(C(=O)c2snnc2C)c2ccc(C)c(Cl)c2)cc1 (stereo not drawn) | 26 | 35 | 26 | 42 | 40 | 18 | 24 | 69 | 27 | 18 | 50 | 25 |
| Cc1ccc(N(C(=O)c2snnc2C)C(C(=O)NC2CCCCC2)c2cccc(O)c2)cc1Cl (stereo not drawn) | 24 | 47 | 48 | 56 | 35 | 34 | 22 | 43 | 44 | 44 | 29 | 24 |
| Cc1ccc(N(C(=O)c2snnc2C)C(C(=O)NC2CCCCC2)c2ccc(O)cc2)cc1Cl (stereo not drawn) | 32 | 53 | 31 | 50 | 17 | 38 | 37 | 46 | 33 | 8 | 41 | 14 |
